For orientation: IC50 means the concentration that inhibits the measured activity by half.

The values below come from patent US10669268B2, “Bicyclic derivatives” (Hoffmann-La Roche Inc., priority 2012, dated 2020).

This experiment concerns the target ATX (human His-tagged) (Homo sapiens (Human), UniProt Q13822). Kind of experiment: Human ATX enzyme inhibition assay (fluorescence quenching, MR121 substrate). The format is biochemical. The settings on record: 30 nM ATX, 1 μM MR121 substrate, 30° C., pH 8.0. Summed up: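 Fluorescence-quenching assay using MR121 substrate at 1 μM final, incubated 15 min at 30 °C. Buffer was 50 mM Tris-HCl pH 8.0 with 140 mM NaCl, 5 mM KCl, 1 mM CaCl2, 1 mM MgCl2 and 0.01% Triton X-100.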
With `O=C(OCc1ccc(OC(F)(F)F)c(F)c1)N1C[C@@H]2CN(C(=O)c3ccc4[nH]nnc4c3)C[C@H]2C1` [Example 4.43, (3aS,6aS)-5-(1H-benzotriazole-5-carbonyl)-hexahydro-pyrrolo[3,4-c]pyrrole-2-carboxylic acid 3-fluoro-4-trifluoromethoxy-benzyl ester], the half-inhibitory concentration (IC50) came to 4 nM.
In the case of `O=C(OCc1ccc(OCC(F)(F)F)cc1)N1C[C@@H]2CN(C(=O)c3ccc4[nH]nnc4c3)C[C@H]2C1` [Example 4.44, (3aS,6aS)-5-(1H-benzotriazole-5-carbonyl)-hexahydro-pyrrolo[3,4-c]pyrrole-2-carboxylic acid 4-(2,2,2-trifluoro-ethoxy)-benzyl ester], inhibition was half-maximal at 6 nM (IC50).
The result for `O=C(OCc1ccc(OC(F)(F)F)cn1)N1C[C@@H]2CN(C(=O)c3ccc4[nH]nnc4c3)C[C@H]2C1` [Example 4.45, (3aS,6aS)-5-(1H-benzotriazole-5-carbonyl)-hexahydro-pyrrolo[3,4-c]pyrrole-2-carboxylic acid 5-trifluoromethoxy-pyridin-2-ylmethyl ester] reads 7 nM.
As for `CC(C)c1cc(C#N)ccc1COC(=O)N1C[C@@H]2CN(C(=O)[C@@H]3CCc4[nH]nnc4C3)C[C@H]2C1` [Example 4.46, (3aS,6aS)-5-((R)-4,5,6,7-tetrahydro-1H-benzotriazole-5-carbonyl)-hexahydro-pyrrolo[3,4-c]pyrrole-2-carboxylic acid 4-cyano-2-isopropyl-benzyl ester], the figure is 5 nM.
`Cc1cc(COC(=O)N2C[C@@H]3CN(C(=O)[C@@H]4CCc5[nH]nnc5C4)C[C@H]3C2)c(C(C)C)cc1C#N` [Example 4.47, (3aS,6aS)-5-((R)-4,5,6,7-tetrahydro-1H-benzotriazole-5-carbonyl)-hexahydro-pyrrolo[3,4-c]pyrrole-2-carboxylic acid 4-cyano-2-isopropyl-5-methyl-benzyl ester] registered an IC50 of 4 nM.
In turn, `O=C(OCc1ccc(OC(F)(F)F)cc1F)N1C[C@@H]2CN(C(=O)[C@@H]3CCc4[nH]nnc4C3)C[C@H]2C1` [Example 4.48, (3aS,6aS)-5-((R)-4,5,6,7-tetrahydro-1H-benzotriazole-5-carbonyl)-hexahydro-pyrrolo[3,4-c]pyrrole-2-carboxylic acid 2-fluoro-4-trifluoromethoxy-benzyl ester] returned an IC50 of 3 nM.
As for `O=C(OCc1ccc(OC(F)(F)F)cc1F)N1C[C@@H]2CN(C(=O)c3ccc4[nH]nnc4c3)C[C@H]2C1` [Example 4.49, (3aS,6aS)-5-(1H-benzotriazole-5-carbonyl)-hexahydro-pyrrolo[3,4-c]pyrrole-2-carboxylic acid 2-fluoro-4-trifluoromethoxy-benzyl ester], inhibition was half-maximal at 3 nM (IC50).
As for `CC(C)c1cc(C#N)ccc1COC(=O)N1C[C@@H]2CN(C(=O)c3ccc4[nH]nnc4c3)C[C@H]2C1` [Example 4.52, (3aS,6aS)-5-(1H-benzotriazole-5-carbonyl)-hexahydro-pyrrolo[3,4-c]pyrrole-2-carboxylic acid 4-cyano-2-isopropyl-benzyl ester], the figure is 10 nM; as for `Cc1cc(COC(=O)N2C[C@@H]3CN(C(=O)c4ccc5[nH]nnc5c4)C[C@H]3C2)c(C(C)C)cc1C#N` [Example 4.53, (3aS,6aS)-5-(1H-benzotriazole-5-carbonyl)-hexahydro-pyrrolo[3,4-c]pyrrole-2-carboxylic acid 4-cyano-2-isopropyl-5-methyl-benzyl ester], 5 nM.
The result for `O=C(OCc1ccc(OC(F)(F)F)cc1)N1C[C@@H]2CN(C(=O)N3CCc4[nH]nnc4C3)C[C@H]2C1` [Example 4.54, (3aS,6aS)-5-(1,4,6,7-tetrahydro-[1,2,3]triazolo[4,5-c]pyridine-5-carbonyl)-hexahydro-pyrrolo[3,4-c]pyrrole-2-carboxylic acid 4-trifluoromethoxy-benzyl ester] reads 14 nM; that for `O=C(OCc1ccc(C(F)(F)F)cc1F)N1C[C@@H]2CN(C(=O)c3ccc4[nH]nnc4c3)C[C@H]2C1` [Example 4.56, (3aS,6aS)-5-(1H-benzotriazole-5-carbonyl)-hexahydro-pyrrolo[3,4-c]pyrrole-2-carboxylic acid 2-fluoro-4-trifluoromethyl-benzyl ester], 9 nM.
The result for `O=C(OCc1ccc(C(F)(F)F)cc1)N1C[C@@H]2CN(C(=O)c3ccc4[nH]nnc4c3)C[C@H]2C1` [Example 4.57, (3aS,6aS)-5-(1H-benzotriazole-5-carbonyl)-hexahydro-pyrrolo[3,4-c]pyrrole-2-carboxylic acid 4-trifluoromethyl-benzyl ester] reads 11 nM; that for `O=C(OCc1ccc(OC(F)(F)F)cc1)N1C[C@@H]2CN(C(=O)[C@@H]3CCc4[nH]nnc4C3)C[C@H]2C1` [Example 4.58, (3aS,6aS)-5-((R)-4,5,6,7-tetrahydro-1H-benzotriazole-5-carbonyl)-hexahydro-pyrrolo[3,4-c]pyrrole-2-carboxylic acid 4-trifluoromethoxy-benzyl ester], 5.2 nM; that for `O=C(OCc1ccc(C(F)(F)F)cc1)N1C[C@@H]2CN(C(=O)[C@@H]3CCc4[nH]nnc4C3)C[C@H]2C1` [Example 4.59, (3aS,6aS)-5-((R)-4,5,6,7-tetrahydro-1H-benzotriazole-5-carbonyl)-hexahydro-pyrrolo[3,4-c]pyrrole-2-carboxylic acid 4-trifluoromethyl-benzyl ester], 9 nM.
As for `CS(=O)(=O)c1cc(Cl)cc(COC(=O)N2C[C@@H]3CN(C(=O)[C@@H]4CCc5[nH]nnc5C4)C[C@H]3C2)c1` [Example 4.60, (3aS,6aS)-5-((R)-4,5,6,7-tetrahydro-1H-benzotriazole-5-carbonyl)-hexahydro-pyrrolo[3,4-c]pyrrole-2-carboxylic acid 3-chloro-5-methanesulfonyl-benzyl ester], the midpoint of inhibition, the IC50, lay at 5 nM.
As for `N#Cc1ccc(COC(=O)N2C[C@@H]3CN(C(=O)c4ccc5[nH]nnc5c4)C[C@H]3C2)c(OC2CCC2)c1` [Example 4.64, (3aS,6aS)-5-(1H-benzotriazole-5-carbonyl)-hexahydro-pyrrolo[3,4-c]pyrrole-2-carboxylic acid 4-cyano-2-cyclobutoxy-benzyl ester], the figure is 19 nM; as for `CC(C)Oc1cc(C#N)ccc1COC(=O)N1C[C@@H]2CN(C(=O)c3ccc4[nH]nnc4c3)C[C@H]2C1` [Example 4.65, (3aS,6aS)-5-(1H-benzotriazole-5-carbonyl)-hexahydro-pyrrolo[3,4-c]pyrrole-2-carboxylic acid 4-cyano-2-isopropoxy-benzyl ester], 14 nM; as for `N#Cc1ccc(COC(=O)N2C[C@@H]3CN(C(=O)c4ccc5[nH]nnc5c4)C[C@H]3C2)c(OCC(F)(F)F)c1` [Example 4.66, (3aS,6aS)-5-(1H-benzotriazole-5-carbonyl)-hexahydro-pyrrolo[3,4-c]pyrrole-2-carboxylic acid 4-cyano-2-(2,2,2-trifluoro-ethoxy)-benzyl ester], 40 nM.
As for `CCOc1cc(Cl)c(F)cc1COC(=O)N1C[C@@H]2CN(C(=O)c3ccc4[nH]nnc4c3)C[C@H]2C1` [Example 4.67, (3aS,6aS)-5-(1H-benzotriazole-5-carbonyl)-hexahydro-pyrrolo[3,4-c]pyrrole-2-carboxylic acid 4-chloro-2-ethoxy-5-fluoro-benzyl ester], the figure is 8 nM; as for `O=C(OCc1cc(Cl)cc(Cl)c1)N1C[C@H]2C[C@@H](Nc3ccc4[nH]c(=O)oc4c3)C[C@H]2C1` [Example 5, (3aR,5r,6aS)-3,5-Dichlorobenzyl 5-(2-oxo-2,3-dihydrobenzo[d]oxazol-6-ylamino)hexahydrocyclopenta[c]pyrrole-2(1H)-carboxylate], 248 nM.
The result for `O=C(OCc1cc(Cl)cc(Cl)c1)N1C[C@H]2CN(Cc3ccc4[nH]cnc4c3)C[C@H]2C1` [Example 6, (3aR,6aS)-3,5-Dichlorobenzyl 5-((1H-benzo[d]imidazol-5-yl)methyl)hexahydropyrrolo[3,4-c]pyrrole-2(1H)-carboxylate] reads 10400 nM; that for `O=C(OCc1cc(Cl)cc(Cl)c1)N1C[C@H]2CN(Cc3ccc4[nH]ncc4c3)C[C@H]2C1` [Example 6.02], 2810 nM; that for `O=C(OCc1cc(Cl)cc(Cl)c1)N1C[C@H]2CN(Cc3ccc4[nH]c(=O)oc4c3)C[C@H]2C1` [Example 6.03], 531 nM.
Take `O=C(CCc1cc(Cl)cc(Cl)c1)N1C[C@H]2CN(Cc3ccc4[nH]c(=O)oc4c3)C[C@H]2C1` [Example 6.04]: 282 nM corresponded to half-maximal inhibition (IC50).
As for `N#Cc1ccc(/C=C/C(=O)N2CC[C@@H]3CN(Cc4ccc5[nH]nnc5c4)C[C@@H]3CC2)cc1` [Example 6.05], the figure is 179 nM; as for `O=C(OCc1cc(Cl)cc(Cl)c1)N1C[C@@H]2CN(S(=O)(=O)c3ccc4[nH]c(=O)oc4c3)C[C@@H]2C1` [Example 7, (3aR,6aS)-3,5-Dichlorobenzyl 5-(2-oxo-2,3-dihydrobenzo[d]oxazol-6-ylsulfonyl)hexahydropyrrolo[3,4-c]pyrrole-2(1H)-carboxylate], 22 nM; as for `O=C(OCc1cc(Cl)cc(Cl)c1)N1C[C@@H]2CN(C(=O)N3CCc4[nH]nnc4C3)C[C@@H]2C1` [Example 8, (3aR,6aS)-3,5-dichlorobenzyl 5-(4,5,6,7-tetrahydro-1H-[1,2,3]triazolo[4,5-c]pyridine-5-carbonyl)hexahydropyrrolo[3,4-c]pyrrole-2(1H)-carboxylate], 108 nM.
As for `O=C(/C=C/c1ccc(OC(F)(F)F)cc1)N1CC[C@@H]2CN(C(=O)N3CCc4[nH]nnc4C3)C[C@@H]2CC1` [Example 8.01], the figure is 2 nM; as for `O=C(/C=C/c1ccc(OC(F)(F)F)cc1)N1CC[C@@H]2CN(C(=O)N3CCc4[nH]ncc4C3)C[C@@H]2CC1` [Example 8.02], 186 nM.
